Laboratory results from US6677350B1, “Beta-fluoroethyl thiourea compounds and use” (priority 1999, dated 2004).
Several values for one entry are separate records, joined by “and”; a condition that tells them apart may be missing. Equal values may be shown once. Read-outs that look alike come from different tables or passages of the source.

Test system: M. tuberculosis H37Rv (ATCC 27294)
Assay: In vitro anti-tuberculosis screening, BACTEC 460 radiometric system, percent inhibition of growth
Assay type: cell-based, Mycobacterium tuberculosis
Conditions: for inhibition at 12.5 µg/mL: Mycobacterium tuberculosis
[1] = Mtb H37Rv, 12.5 μg/mL, BACTEC 12B medium
[2] = Mtb H37Rv, drug concentration 12.5 μg/mL
[3] = Mtb H37Rv, drug concentration 12.5 μg/mL, read-out: inhibition of the growth of Mtb
[4] = Mtb H37Rv, 12.5 μg/mL, BACTEC 12B medium, read-out: Activity % Inhibition at 12.5 μg/mL (flavones)

| Compound | Activity % inhibition at 12.5 μg/mL (chalcones) [1] | inhibition of the growth of Mtb [2] | also measured |
| --- | --- | --- | --- |
| 3′′′-Nitro-C3-O-C4′′′′--Biflavone [Compound 154] |  |  | Activity % Inhibition at 12.5 μg/mL (biflavonoids) [1]: 61% |
| 6-2′′′-Biapigenin [Compound 158] |  |  | Activity % Inhibition at 12.5 μg/mL (biflavonoids) [1]: 1% |
| COc1ccc(C(=O)/C=C/c2ccccc2)c(O)c1 [Compound 1] | 78% | 78% |  |
| COc1ccc(/C=C/C(=O)c2c(O)cccc2OC)cc1 [Compound 2] | 75% |  |  |
| COc1ccc(/C=C/C(=O)c2ccc([N+](=O)[O-])cc2)cc1 [Compound 4] | 62% |  |  |
| O=C(/C=C/c1ccccc1)c1ccccc1O [Compound 5, 2′-hydroxychalcone] |  |  | inhibition at 12.5 µg/mL (read-out: Activity % inhibition at 12.5 μg/mL (chalcones), Mtb H37Rv, 12.5 μg/mL, BACTEC 12B medium): 61%; inhibition at 12.5 µg/mL (read-out: inhibition of the growth of Mtb, Mtb H37Rv, drug concentration 12.5 μg/mL): 61% |
| COc1ccc(/C=C/C(=O)c2c(O)cc(OC)cc2OC)cc1 [Compound 7] | 40% | 40% |  |
| COc1ccccc1C=CC(=O)c1ccccc1O [Compound 8] | 39% |  |  |
| COc1ccc(/C=C/C(=O)c2ccc(OC)cc2O)cc1 [Compound 9] | 32% |  |  |
| O=C(/C=C/c1cccc(O)c1)c1ccccc1O [Compound 10] | 18% |  |  |
| Nc1cccc(/C=C/C(=O)c2ccccc2O)c1 [Compound 11] | 11% |  |  |
| Nc1ccc(O)c(C(=O)/C=C/c2ccccc2)c1 [Compound 12] | 6% | 6% |  |
| Nc1ccc(C(=O)/C=C/c2ccccc2)cc1 [Compound 13] | 5% |  |  |
| CCOc1cc(O)c(C(=O)C=Cc2ccccc2)c(OCC)c1 [Compound 14] | 0% |  |  |
| COc1cc(O)c(C(=O)/C=C/c2cc(OC)c(OC)c(OC)c2)c(O)c1 [Compound 15] | 0% |  |  |
| COc1ccc(/C=C/C(=O)c2cc(C(=O)O)ccc2O)cc1 [Compound 16] | 0% |  |  |
| CC(=O)Nc1cccc(/C=C/C(=O)c2ccccc2O)c1 [Compound 17] | 0% |  |  |
| COc1ccc(/C=C/C(=O)c2ccccc2F)cc1 [Compound 20] | 82% |  |  |
| COc1ccc(C=CC(=O)c2ccc(F)cc2O)cc1 [Compound 22] | 63% |  |  |
| COc1ccc(/C=C/C(=O)c2cccc(F)c2O)cc1 [Compound 23] | 45% |  |  |
| O=C(C=Cc1ccccc1)c1ccc(Cl)cc1O [Compound 25] | 89% | 89% |  |
| O=C(/C=C/c1ccccc1)c1cc(Cl)ccc1O [Compound 26] | 67% | 67% |  |
| O=C(/C=C/c1ccc(Cl)cc1)c1ccccc1O [Compound 27] | 67% | 67% |  |
| COc1ccc(C=CC(=O)c2ccc(Cl)cc2O)cc1 [Compound 28] | 57% | 57% |  |

| Compound | Activity % inhibition at 12.5 μg/mL (chalcones) [1] | inhibition of the growth of Mtb [2] | also measured |
| --- | --- | --- | --- |
| COc1ccc(/C=C/C(=O)c2cc(Cl)ccc2O)cc1 [Compound 29] | 20% | 20% |  |
| O=C(/C=C/c1ccccc1Br)c1ccccc1O [Compound 31] | 83% | 83% |  |
| O=C(/C=C/c1ccccc1)c1cccc(Br)c1O [Compound 32] | 79% | 79% |  |
| O=C(C=Cc1ccc(Br)cc1)c1ccccc1O [Compound 33] | 70% | 70% |  |
| COc1ccc(C=CC(=O)c2ccc(Br)cc2O)cc1 [Compound 36] | 25% | 25% |  |
| COc1ccc(/C=C/C(=O)c2cc(Br)ccc2O)cc1 [Compound 37] | 23% | 23% |  |
| Nc1ccccc1/C=C/C(=O)c1ccc(Br)cc1O [Compound 38] | 12% | 8% and 12% |  |
| Nc1cccc(C(=O)/C=C/c2ccccc2I)c1 [Compound 41] | 88% | 88% |  |
| O=C(/C=C/c1ccccc1)c1cc(I)ccc1O [Compound 42] | 51% | 51% and 52% |  |
| COc1ccc(C(=O)/C=C/c2cccc(I)c2)c(O)c1 [Compound 43] | 47% | 47% |  |
| O=C(/C=C/c1ccccc1I)c1ccccc1O [Compound 44, 2′-hydroxy-2-iodochalcone] |  |  | inhibition at 12.5 µg/mL (Mtb H37Rv, 12.5 μg/mL, BACTEC 12B medium, read-out: Activity % inhibition at 12.5 μg/mL (chalcones)): 41%; inhibition at 12.5 µg/mL [3]: 41% |
| O=C(/C=C/c1ccccc1)c1ccc(I)cc1O [Compound 45] | 21% | 21% |  |
| O=C(/C=C/c1ccc(I)cc1)c1ccccc1O [Compound 46] | 21% | 21% |  |
| COc1ccc(/C=C/C(=O)c2cc(I)ccc2O)cc1 [Compound 48] | 0% | 0% |  |
| COc1ccc(/C=C/C(=O)c2cccc(I)c2O)cc1 [Compound 49] | 0% | 0% |  |
| O=C(O)c1ccc(O)c(C(=O)C=Cc2cccc(I)c2)c1 [Compound 50] | 0% | 0% |  |
| O=C(/C=C/c1cccc(I)c1)c1cccc(Br)c1O [Compound 51, 3′-bromo-2′-hydroxy-3-iodochalcone] |  |  | inhibition at 12.5 µg/mL [3]: 0% |
| O=C(C=Cc1ccccn1)c1ccccn1 [Compound 60] |  |  | Activity % inhibition at 12.5 μg/mL (chalcone-like compounds) [1]: 42% |
| O=C(/C=C/c1ccccc1)c1cccc2ccccc12 [Compound 61] |  |  | Activity % inhibition at 12.5 μg/mL (chalcone-like compounds) [1]: 37% |
| CN(C)c1ccc(/C=C/C(=O)c2ccccn2)cc1 [Compound 62] |  |  | Activity % inhibition at 12.5 μg/mL (chalcone-like compounds) [1]: 16% |
| O=C(/C=C/c1ccco1)c1ccc(Br)cc1O [Compound 63] |  |  | Activity % inhibition at 12.5 μg/mL (chalcone-like compounds) [1]: 17% |
| O=C(/C=C/c1cc2ccccc2[nH]1)c1ccncc1 [Compound 64] |  |  | Activity % inhibition at 12.5 μg/mL (chalcone-like compounds) [1]: 12% |
| COc1ccc(C(=O)/C=C/c2ccco2)c(O)c1 [Compound 65] |  |  | Activity % inhibition at 12.5 μg/mL (chalcone-like compounds) [1]: 3% |
| Nc1ccc(C(=O)/C=C/c2cccnc2N)cc1 [Compound 66] |  |  | Activity % inhibition at 12.5 μg/mL (chalcone-like compounds) [1]: 7% |

| Compound | Activity % inhibition at 12.5 μg/mL (chalcones) [1] | inhibition of the growth of Mtb [2] | also measured |
| --- | --- | --- | --- |
| CN(C)c1ccc(/C=C/C(=O)c2ccncc2)cc1 [Compound 68] |  |  | Activity % inhibition at 12.5 μg/mL (chalcone-like compounds) [1]: 1% |
| COc1ccc(O)c(C(=O)/C=C/c2ccco2)c1 [Compound 69] |  |  | Activity % inhibition at 12.5 μg/mL (chalcone-like compounds) [1]: 0% |
| COc1ccc(C(=O)/C=C/c2ccncc2)cc1 [Compound 70] |  |  | Activity % inhibition at 12.5 μg/mL (chalcone-like compounds) [1]: 0% |
| COc1ccc(C(=O)/C=C/c2cccnc2)cc1 [Compound 71] |  |  | Activity % inhibition at 12.5 μg/mL (chalcone-like compounds) [1]: 0% |
| Nc1ncccc1C=CC(=O)c1cc(Cl)ccc1O [Compound 72] |  |  | Activity % inhibition at 12.5 μg/mL (chalcone-like compounds) [1]: 0% |
| Nc1ccc(C(=O)C=Cc2cccnc2N)cc1 [Compound 73] |  |  | Activity % inhibition at 12.5 μg/mL (chalcone-like compounds) [1]: 0% |
| Nc1ncccc1/C=C/C(=O)c1cc2ccccc2cc1O [Compound 74] |  |  | Activity % inhibition at 12.5 μg/mL (chalcone-like compounds) [1]: 0% |
| O=C(/C=C/c1ccncc1)c1ccco1 [Compound 75] |  |  | Activity % inhibition at 12.5 μg/mL (chalcone-like compounds) [1]: 0% |
| COc1ccc(/C=C/C(=O)c2ccccn2)cc1 [Compound 76] |  |  | Activity % inhibition at 12.5 μg/mL (chalcone-like compounds) [1]: 0% |
| O=c1cc(-c2ccccc2)oc2c(Br)cccc12 [Compound 77] |  |  | Activity % Inhibition at 12.5 μg/mL (flavones) [1]: 66% |
| O=c1c(O)c(-c2ccccc2)oc2ccc(I)cc12 [Compound 79] |  |  | Activity % Inhibition at 12.5 μg/mL (flavones) [1]: 64% |
| O=c1c(O)c(-c2cccc(Br)c2)oc2ccccc12 [Compound 80] |  |  | Activity % Inhibition at 12.5 μg/mL (flavones) [1]: 60% |
| O=c1c(O)c(-c2ccccc2)oc2cc(Cl)ccc12 [Compound 81] |  |  | Activity % Inhibition at 12.5 μg/mL (flavones) [1]: 58% |
| O=c1c(O)c(-c2ccccc2)oc2ccc(Br)cc12 [Compound 82] |  |  | Activity % Inhibition at 12.5 μg/mL (flavones) [1]: 58% |
| O=c1cc(-c2ccc(I)cc2)oc2ccccc12 [Compound 84] |  | 51% | anti-TB activity in words (Mtb H37Rv, 12.5 μg/mL): weakly active or inactive; Activity % Inhibition at 12.5 μg/mL (flavones) [1]: 51% |
| COc1ccc(-c2oc3cc(F)ccc3c(=O)c2O)cc1 [Compound 85] |  |  | anti-TB activity in words (Mtb H37Rv, 12.5 μg/mL): did not change the activity; Activity % Inhibition at 12.5 μg/mL (flavones) [1]: 50% |
| COc1ccc(-c2oc3cc(F)ccc3c(=O)c2OC(C)=O)cc1 [Compound 86] |  |  | Activity % Inhibition at 12.5 μg/mL (flavones) [1]: 50% |
| COc1ccc(-c2oc3ccc(Cl)cc3c(=O)c2O)cc1 [Compound 87] |  |  | anti-TB activity in words (Mtb H37Rv, 12.5 μg/mL): did not change the activity; Activity % Inhibition at 12.5 μg/mL (flavones) [1]: 48% |
| COc1ccc(-c2oc3ccccc3c(=O)c2O)cc1 [Compound 88, 4′-methoxyflavonol] |  |  | increase in activity compared to 92 (Mtb H37Rv, 12.5 μg/mL): 10%; inhibition at 12.5 µg/mL [4]: 48% |
| COc1c(-c2ccccc2)oc2ccc(Br)cc2c1=O [Compound 89] |  |  | Activity % Inhibition at 12.5 μg/mL (flavones) [1]: 44% |
| O=c1c(O)c(-c2ccccc2)oc2c(F)cccc12 [Compound 90] |  |  | Activity % Inhibition at 12.5 μg/mL (flavones) [1]: 43% |
| COc1ccc(-c2oc3cc(I)ccc3c(=O)c2O)cc1 [Compound 91] |  |  | Activity % Inhibition at 12.5 μg/mL (flavones) [1]: 43% |
| O=c1c(O)c(-c2ccccc2)oc2ccccc12 [Compound 92, 3-hydroxyflavone] |  |  | inhibition at 12.5 µg/mL [4]: 38%; inhibition at 12.5 µg/mL [3]: 38% |
| COc1ccc(-c2cc(=O)c3ccccc3o2)cc1 [Compound 93] |  |  | Activity % Inhibition at 12.5 μg/mL (flavones) [1]: 29% |
